In ChEMBL document CHEMBL1201862, “PubChem BioAssay data set” (2004):
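Results reflect a 48-hour exposure of cells in 96-well plates to compound at five concentrations. Abbreviation: GI50, concentration required for 50% inhibition of growth.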 Activity calls are given as the source filed them. Cut-off read from the data, not from the text of the source: active = GI50 up to about 1.1 µM and inactive = higher.

Columns and labels:
Assay in all cases: DTP human tumour cell line panel, 48 h
T47D = tested on: T47D
UACC-257 = tested on: UACC-257
SF-539 = tested on: SF-539
MOLT-4 = tested on: MOLT-4
RPMI-8226 = tested on: RPMI-8226
OVCAR-4 = tested on: OVCAR-4
HOP-92 = tested on: HOP-92
HL-60 = tested on: HL-60
HCT-15 = tested on: HCT-15
SF-268 = tested on: SF-268
SW-620 = tested on: SW-620
OVCAR-8 = tested on: OVCAR-8
PC-3 = tested on: PC-3
SN12C = tested on: SN12C
TK-10 = tested on: TK-10
DU-145 = tested on: DU-145
A549 = tested on: A549
MDA-N = tested on: MDA-N
LOX IMVI = tested on: LOX IMVI
BT-549 = tested on: BT-549

Measured: GI50

CS(=O)(=O)Nc1ccc(NCc2c[nH]c3ccc4ncccc4c23)cc1
inactive: T47D 20.6 µM | UACC-257 23.1 µM | SF-539 24.8 µM | MOLT-4 13.6 µM | RPMI-8226 11 µM | OVCAR-4 25.9 µM | HOP-92 52.6 µM | HL-60 22.3 µM | SF-268 23.7 µM | SW-620 32.3 µM | OVCAR-8 34 µM | PC-3 19 µM | SN12C 25.8 µM | TK-10 25.6 µM | DU-145 26.1 µM | A549 43.4 µM | MDA-N 18 µM | LOX IMVI 26.4 µM | BT-549 30.3 µM
27.2 µM: HCT-15

CCOc1ccc(-n2c(=O)n3c(Nc4ccc(Cl)cc4)nc4c(c(=O)n(C)c(=O)n4C)n3c2=O)cc1
20.7 µM: HCT-15
inactive: T47D 39.2 µM | UACC-257 23.5 µM | SF-539 41 µM | MOLT-4 23.9 µM | RPMI-8226 24 µM | OVCAR-4 53 µM | HOP-92 22.5 µM | HL-60 22 µM | SF-268 34.8 µM | SW-620 33.9 µM | OVCAR-8 36.8 µM | PC-3 47.6 µM | SN12C 27.2 µM | TK-10 18.8 µM | DU-145 40.9 µM | A549 75.5 µM | MDA-N 32.7 µM | LOX IMVI 20.4 µM | BT-549 29 µM

COC1/C=C/C(C)C(OC)CC(O)/C=C/C(C)C(C(C)C(OC)C(C)CCC(=O)C(C)C(C/C=C/N(C)C=O)OC)OC(=O)/C=C/C=C(\C)CC(OC)CC2=CC(=O)O[C@@H](C(C)C(OC)C1)[C@H]2O (stereo not given in full)
0.0556 µM: HCT-15
active: T47D 0.912 µM | UACC-257 0.11 µM | SF-539 0.114 µM | MOLT-4 0.214 µM | RPMI-8226 0.0536 µM | OVCAR-4 0.12 µM | HOP-92 0.0634 µM | HL-60 0.064 µM | SF-268 0.153 µM | SW-620 0.0664 µM | OVCAR-8 0.16 µM | PC-3 0.0873 µM | SN12C 0.379 µM | TK-10 0.29 µM | DU-145 0.544 µM | A549 0.119 µM | MDA-N 0.0951 µM | LOX IMVI 0.0223 µM | BT-549 0.142 µM

COC(=O)/C=C\C(C#N)(C#N)/N=C/c1ccc(OC)cc1
active: MOLT-4 1.06 µM | RPMI-8226 0.48 µM
3.85 µM: HCT-15
inactive: T47D 1.54 µM | UACC-257 4.83 µM | SF-539 4.99 µM | OVCAR-4 1.92 µM | HOP-92 1.92 µM | HL-60 1.45 µM | SF-268 4.94 µM | SW-620 1.99 µM | OVCAR-8 2.89 µM | PC-3 7.4 µM | SN12C 15.3 µM | TK-10 2.63 µM | DU-145 7.01 µM | A549 19.5 µM | MDA-N 4.75 µM | LOX IMVI 3.12 µM | BT-549 5.04 µM

O=C(O)C1C(C(=O)O)C23CC2(C(=O)O)C2(C(=O)O)CCC3=C3CCCC312 (stereo not given)
15.1 µM: HCT-15
inactive: T47D 11.8 µM | UACC-257 3.39 µM | SF-539 4.67 µM | MOLT-4 4.99 µM | RPMI-8226 6.01 µM | OVCAR-4 16 µM | HOP-92 8.3 µM | HL-60 3.44 µM | SF-268 4.51 µM | SW-620 6.34 µM | OVCAR-8 10.7 µM | PC-3 5.45 µM | SN12C 8.87 µM | TK-10 11.1 µM | DU-145 11.7 µM | A549 6.34 µM | MDA-N 4.79 µM | LOX IMVI 10.6 µM | BT-549 17.2 µM
